Test results: US20220241409A1, “WATER SOLUBLE ADJUVANT AND COMPOSITION CONTAINING SAME” (Sumitomo Dainippon Pharma Co., Ltd., priority 2019, published 2022)

What was measured:
[1] = system: HLA-A*02:01 transgenic mouse; test: In vivo adjuvant activity, CTL induction with vaccine b (Montanide ISA 51 VG), IFNγ ELISPOT (Test 8); details: compound (32.5 ng or 325 ng per body) added to vaccine b versus no compound; twice, one week interval
Method: The in vivo adjuvant activity of the compounds prepared in Examples 2 and 3 was evaluated in the following procedure. To a cocktail vaccine comprising Compound of formula 4 prepared in Reference example 9 and Peptide SEQ ID No. 3 prepared in Reference example 3 with Montanide ISA51 VG (hereinafter, referred to as “vaccine b”) was added the compound prepared in Example 2 or 3 to prepare each vaccine. The vaccine was administered to a HLA-A*02:01 transgenic mouse, and the adjuvant activity of each vaccine was evaluated by the method of testing antigen-specific CTL induction.
Specifically, Compound of formula 4 and Peptide SEQ ID No. 3 were dissolved in DMSO, and then diluted with water for injection to concentrations of Compound of formula 4 of 3 mg/mL and Peptide SEQ ID No. 3 of 2.25 mg/mL. The diluted peptide solution was mixed and emulsified with an equal volume of Montanide ISA 51 VG (Seppic) to prepare vaccine b. Cocktail vaccine b was injected to mice intradermally at the tail base area in an amount for administering 300 μg of Compound of formula 4 per body and 225 μg of Peptide SEQ ID No. 3 per body. Or, in the step of preparing vaccine b, the compound prepared in Example 3 was added to the diluted peptide solution to prepare a vaccine, and the prepared vaccine was injected to mice intradermally at the tail base area in an amount for administering 300 μg of Compound of formula 4 per body, 225 μg of Peptide SEQ ID No. 3 per body, and 32.5 ng or 325 ng of the compound prepared in Example 3 per body. Or, in the step of preparing vaccine b, the compound prepared in Example 2 was added to the diluted peptide solution to prepare a vaccine, and the prepared vaccine was injected to mice intradermally at the tail base area in an amount for administering 300 μg of Compound of formula 4 per body, 225 μg of Peptide SEQ ID No. 3 per body, and 32.5 ng or 325 ng of the compound prepared in Example 2 per body. The administrations were done twice, which had one week interval. One week after the final administration, the mice were sacrificed with CO2 gas. Splenocytes were harvested from spleens removed from the mice. Like Test 6, Peptide (SEQ ID No. 1 or SEQ ID No. 5) was added to the splenocyte-containing ELISPOT plate, and the plate was incubated overnight at 37° C. under an atmosphere of 5% CO2 to re-stimulate the peptide in vitro. Then, after removal of the supernatant from the wells, stained spots on the ELISPOT plate were counted.

[2] = system: HLA-A*02:01 transgenic mouse; test: In vivo adjuvant activity, CTL induction with vaccine a, IFNγ ELISPOT (Test 6); details: for CTL counts responsive to Peptide SEQ ID No. 1 (IFNγ-producing cells) / CTL counts responsive to Peptide SEQ ID No. 5 (IFNγ-producing cells): compound added to vaccine a versus vaccine a, intradermal, Example 3 32.5 ng per body, Reference example 14 17.5 ng per body, one week later
Method: The in vivo adjuvant activity of the compound of Example 3 and the compound of Reference example 14 was evaluated in the following procedure. To a cocktail vaccine comprising Compound of formula 4 prepared in Reference example 9 and Peptide SEQ ID No. 3 prepared in Reference example 3 with a preliminarily-emulsified composition (hereinafter, referred to as “vaccine a”) was added the compound prepared in Example 3 or the compound prepared in Reference example 14 respectively to prepare each vaccine. The vaccine was administered to a HLA-A*02:01 transgenic mouse, and the adjuvant activity of each vaccine was evaluated by the method of testing antigen-specific cytotoxic T-lymphocyte (CTL) induction. The RMFPNAPYL (SEQ ID No. 1) in Compound of formula 4 and VLDFAPPGA (SEQ ID No. 5) in Peptide SEQ ID No. 3 correspond to antigen peptides derived from an HLA-A*02:01-restricted WT1 protein.
HLA-A*02:01 transgenic mouse (C57BL/6CrHLA-A2.1DR1) lacks mouse MHC, and instead expresses a chimeric HLA of a human MHC (HLA-A*02:01) and a mouse MHC (H-2D^b), and HLA-DRB1*01:01. The mouse can evaluate the pharmacological activity of immunotherapeutic agents including a peptide which induces CTLs in HLA-A*02:01-positive human (Eur J Immunol. 2004; 34: 3060-9). In addition, the mouse can also evaluate the induction of a helper peptide which can bind to a human HLA-DRB1*01:01 to induce a helper T-cell, and the enhancing effect for inducing CTLs.
The character for inducing CTLs specific to the antigen peptide (SEQ ID No. 1 or SEQ ID No. 5) by vaccine a was evaluated by measuring whether IFNγ can be produced upon stimulation of splenocytes from the mouse with the peptide. In addition, the character for exerting in vivo adjuvant activity by the compound in Example 3 or the compound in Reference example 14 was evaluated by comparing the number of CTLs induced by vaccine a and the number of CTLs induced by the vaccine prepared by adding the compound prepared in Example 3 or the compound in Reference example 14 to vaccine a, and checking presence or absence of the increase on the number.
0.312 g of sodium dihydrogen phosphate dihydrate was dissolved in 80 g of water for injection. 14.0 g of ethyl oleate, 14.0 g of octyldodecyl myristate, 2.0 g of sorbitan monooleate, 2.8 g of glyceryl monooleate, 0.4 g of polyoxyethylene hydrogenated castor oil 20, and 0.4 g of glycerin were mixed. 2.354 mL of the mixture (corresponding to 2.077 g) was put into a test tube, and 0.396 mL of the aqueous sodium dihydrogen phosphate (corresponding to 0.396 g) was gradually added into the test tube which was being stirred with a mixer (ULTRA-TURRAX T10, IKA, or Touch Mixer MT-51, Yamato Scientific) to emulsify the mixture in the test tube. The obtained emulsion was referred to as preliminary emulsified composition. The amount of the preparation was adjusted as appropriate.
Compound of formula 4 and Peptide SEQ ID No. 3 were dissolved in DMSO, and then diluted with water for injection to concentrations of Compound of formula 4 of 3 mg/ml and Peptide of SEQ ID No. 3 of 2.25 mg/ml. The diluted peptide solution was mixed and emulsified with an equal volume of the above preliminary emulsified composition to prepare vaccine a. Vaccine a was injected to mice intradermally at the tail base area in an amount for administering 300 μg of Compound of formula 4 per body and 225 μg of Peptide SEQ ID No. 3 per body. Or, in the step of preparing vaccine a, the compound prepared in Example 3 was added to the diluted peptide solution to prepare a vaccine, and the prepared vaccine was injected to mice intradermally at the tail base area in an amount for administering 300 μg of Compound of formula 4 per body, 225 μg of Peptide SEQ ID No. 3 per body, and 32.5 ng of the compound prepared in Example 3 per body. […]

[3] = Example 3 32.5 ng per body versus Reference example 14 17.5 ng per body, added to vaccine

Structure (SMILES)	CTL counts responsive to Peptide of SEQ ID No. 1 [1]	CTL counts responsive to Peptide of SEQ ID No. 5 [1]	increase of the CTL counts (Peptide SEQ ID No. 1) compared with Reference example 14 [2, 3]	increase of the CTL counts (Peptide SEQ ID No. 5) compared with Reference example 14 [2, 3]	CTL counts responsive to Peptide SEQ ID No. 1 (IFNγ-producing cells) [2]	CTL counts responsive to Peptide SEQ ID No. 5 (IFNγ-producing cells) [2]
CCCCOc1nc(N)c2[nH]c(=O)n(Cc3ccc(CN(C)CCOCCOCCOCCOCCO)nc3)c2n1 [Example 2, 6-amino-2-butoxy-9-{[6-(16-hydroxy-2-methyl-5,8,11,14-tetraoxa-2-azahexadecan-1-yl)pyridin-3-yl]methyl}-7,9-dihydro-8H-purin-8-one-trifluoroacetate]	more	more	–	–	–	–
CCCCOc1nc(N)c2[nH]c(=O)n(Cc3ccc(CN(C)CCOCCOCCOCCOCCO)cc3)c2n1 [Example 3, 6-amino-2-butoxy-9-{[4-(16-hydroxy-2-methyl-5,8,11,14-tetraoxa-2-azahexadecan-1-yl)phenyl]methyl}-7,9-dihydro-8H-purin-8-one]	more	more	more	more	increased	increased
CCCCOc1nc(N)c2[nH]c(=O)n(Cc3ccc(CNC)cc3)c2n1 [Reference example 14, reference compound]	–	–	–	–	increased	increased
